In ChEMBL document CHEMBL5036381, “Novel Plasma Kallikrein Inhibitors for Treating Hereditary Angioedema, Diabetic Macular Edema, and Diabetic Retinopathy” (ACS Med Chem Lett, 2022):

Molecular target: Plasma kallikrein (Homo sapiens, UniProt P03952)
Experiment: Inhibition of human plasma kallikrein using fluorogenic substrate measured by microplate reader analysis
Type: cell-free

Chain of Plasma kallikrein (P03952 20-390 limits assumed): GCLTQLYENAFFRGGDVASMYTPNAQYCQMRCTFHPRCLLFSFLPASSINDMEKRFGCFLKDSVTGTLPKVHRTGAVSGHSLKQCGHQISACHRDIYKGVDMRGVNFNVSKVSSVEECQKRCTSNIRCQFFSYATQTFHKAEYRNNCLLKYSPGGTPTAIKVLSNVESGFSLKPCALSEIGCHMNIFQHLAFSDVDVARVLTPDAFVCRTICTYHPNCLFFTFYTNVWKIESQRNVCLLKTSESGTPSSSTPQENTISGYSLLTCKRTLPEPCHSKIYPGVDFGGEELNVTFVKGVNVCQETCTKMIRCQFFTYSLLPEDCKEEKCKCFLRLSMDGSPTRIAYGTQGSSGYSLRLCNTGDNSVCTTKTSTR
Chain of Plasma kallikrein (P03952 391-638 limits assumed): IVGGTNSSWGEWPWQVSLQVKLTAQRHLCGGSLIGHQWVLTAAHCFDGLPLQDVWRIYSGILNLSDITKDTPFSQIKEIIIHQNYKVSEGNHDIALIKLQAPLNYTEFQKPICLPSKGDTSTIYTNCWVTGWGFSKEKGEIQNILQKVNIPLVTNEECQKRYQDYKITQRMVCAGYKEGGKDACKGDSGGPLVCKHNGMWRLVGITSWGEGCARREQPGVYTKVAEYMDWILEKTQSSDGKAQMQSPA

| IC50 [nM] | Structure (SMILES) |
| --- | --- |
| 0.3 | COc1c(N2C[C@H]3C[C@H]3C2=O)ncc(C(C)n2cc(NC(=O)c3cncc(-c4c(C(F)F)ccc(Cl)c4F)n3)cn2)c1C (some centres not stated) |
| 0.3 | Cc1c([C@H](C)n2cc(NC(=O)c3cncc(-c4c(C(F)F)ccc(Cl)c4F)n3)cn2)cnc(N2C[C@H]3C[C@H]3C2=O)c1F |
